Settings: for mass density / kinematic viscosity / speed of sound / vapor or sublimation pressure: Liquid; for mass density: Vibrating tube method; for surface tension liquid-gas: Drop volume; for kinematic viscosity: Capillary tube (Ostwald / Ubbelohde) method; for speed of sound: Frequency=3 MHz, Sing-around technique in a fixed-path interferometer; for vapor or sublimation pressure: Ebulliometric method (Recirculating still)

CC(=O)c1cccs1 [2-acetylthiophene]
Settings	kinematic viscosity [m2/s]	mass density [kg/m3]	speed of sound [m/s]
313.15 K, 25000 kPa	–	1167.08	–
313.15 K, 30000 kPa	–	1169.85	–
313.15 K, 35000 kPa	–	1172.56	–
313.15 K, 40000 kPa	–	1175.19	–
313.15 K, 45000 kPa	–	1177.74	–
313.15 K, 50000 kPa	–	1180.24	–
313.15 K, 55000 kPa	–	1182.67	–
313.15 K, 60000 kPa	–	1185.04	–
313.15 K, 65000 kPa	–	1187.36	–
315.65 K, 101 kPa	1.58e-06	1149.57	1409
318.15 K, 100 kPa	–	1147.15	–
318.15 K, 101 kPa	1.51e-06	1147.18	1400.3
318.15 K, 2000 kPa	–	1148.56	–
318.15 K, 5000 kPa	–	1150.49	–
318.15 K, 7000 kPa	–	1151.77	–
318.15 K, 10000 kPa	–	1153.65	–
318.15 K, 15000 kPa	–	1156.74	–
318.15 K, 20000 kPa	–	1159.72	–
318.15 K, 25000 kPa	–	1162.64	–
318.15 K, 30000 kPa	–	1165.47	–
318.15 K, 35000 kPa	–	1168.21	–
318.15 K, 40000 kPa	–	1170.9	–
318.15 K, 45000 kPa	–	1173.5	–
318.15 K, 50000 kPa	–	1176.04	–
318.15 K, 55000 kPa	–	1178.53	–
318.15 K, 60000 kPa	–	1180.93	–
318.15 K, 65000 kPa	–	1183.29	–
320.65 K, 101 kPa	1.45e-06	1144.79	1391.8
323.15 K, 100 kPa	–	1142.34	–
323.15 K, 101 kPa	1.39e-06	1142.39	1383.4
323.15 K, 2000 kPa	–	1143.79	–
323.15 K, 5000 kPa	–	1145.78	–
323.15 K, 7000 kPa	–	1147.09	–
323.15 K, 10000 kPa	–	1149.02	–
323.15 K, 15000 kPa	–	1152.17	–
323.15 K, 20000 kPa	–	1155.23	–
323.15 K, 25000 kPa	–	1158.22	–
323.15 K, 30000 kPa	–	1161.08	–
323.15 K, 35000 kPa	–	1163.89	–
323.15 K, 40000 kPa	–	1166.63	–
323.15 K, 45000 kPa	–	1169.28	–
323.15 K, 50000 kPa	–	1171.88	–
323.15 K, 55000 kPa	–	1174.4	–
323.15 K, 60000 kPa	–	1176.86	–
323.15 K, 65000 kPa	–	1179.25	–
325.65 K, 101 kPa	1.34e-06	1140	1375
328.15 K, 100 kPa	–	1137.56	–
328.15 K, 101 kPa	1.29e-06	1137.61	1366.5
328.15 K, 2000 kPa	–	1139.02	–
328.15 K, 5000 kPa	–	1141.06	–
328.15 K, 7000 kPa	–	1142.39	–
328.15 K, 10000 kPa	–	1144.38	–
328.15 K, 15000 kPa	–	1147.6	–
328.15 K, 20000 kPa	–	1150.78	–
328.15 K, 25000 kPa	–	1153.79	–
328.15 K, 30000 kPa	–	1156.77	–
328.15 K, 35000 kPa	–	1159.56	–
328.15 K, 40000 kPa	–	1162.34	–
328.15 K, 45000 kPa	–	1165.07	–
328.15 K, 50000 kPa	–	1167.69	–
328.15 K, 55000 kPa	–	1170.28	–
328.15 K, 60000 kPa	–	1172.79	–
328.15 K, 65000 kPa	–	1175.21	–
330.65 K, 101 kPa	1.24e-06	1135.21	1358.1
333.15 K, 100 kPa	–	1132.76	–
333.15 K, 101 kPa	1.2e-06	1132.81	1349.5
333.15 K, 2000 kPa	–	1134.24	–
333.15 K, 5000 kPa	–	1136.33	–
333.15 K, 7000 kPa	–	1137.7	–
333.15 K, 10000 kPa	–	1139.72	–
333.15 K, 15000 kPa	–	1143.11	–
333.15 K, 20000 kPa	–	1146.25	–
333.15 K, 25000 kPa	–	1149.39	–
333.15 K, 30000 kPa	–	1152.35	–
333.15 K, 35000 kPa	–	1155.23	–
333.15 K, 40000 kPa	–	1158.08	–
333.15 K, 45000 kPa	–	1160.83	–
333.15 K, 50000 kPa	–	1163.52	–
333.15 K, 55000 kPa	–	1166.14	–
333.15 K, 60000 kPa	–	1168.68	–
333.15 K, 65000 kPa	–	1171.17	–
335.65 K, 101 kPa	1.16e-06	1130.41	1340.8
338.15 K, 100 kPa	–	1127.97	–
338.15 K, 101 kPa	1.12e-06	1128.01	1332.2
338.15 K, 2000 kPa	–	1129.47	–
338.15 K, 5000 kPa	–	1131.61	–
338.15 K, 7000 kPa	–	1133.01	–
338.15 K, 10000 kPa	–	1135.08	–
338.15 K, 15000 kPa	–	1138.55	–
338.15 K, 20000 kPa	–	1141.78	–
338.15 K, 25000 kPa	–	1144.86	–
338.15 K, 30000 kPa	–	1147.94	–
338.15 K, 35000 kPa	–	1150.94	–
338.15 K, 40000 kPa	–	1153.82	–
338.15 K, 45000 kPa	–	1156.64	–
338.15 K, 50000 kPa	–	1159.38	–
338.15 K, 55000 kPa	–	1162.04	–
338.15 K, 60000 kPa	–	1164.64	–
338.15 K, 65000 kPa	–	1167.11	–

Settings	surface tension liquid-gas [mN/m]	vapor or sublimation pressure [kPa]
315.65 K	41.14	–
318.15 K	40.87	–
320.65 K	40.58	–
323.15 K	40.27	–
325.65 K	39.97	–
328.15 K	39.7	–
330.65 K	39.43	–
333.15 K	39.12	–
335.65 K	38.88	–
336.16 K	–	0.305
338.15 K	38.58	–
340.77 K	–	0.4
342.94 K	–	0.45
345.74 K	–	0.54
350.41 K	–	0.69
356.58 K	–	0.955
362.84 K	–	1.295
365.84 K	–	1.545
371.37 K	–	2.02
376.26 K	–	2.52
383.49 K	–	3.53
389.55 K	–	4.545
394.16 K	–	5.5
400.53 K	–	7.065
407.19 K	–	9.015
412.74 K	–	11.05
417.12 K	–	13.02
421.69 K	–	15.2
423.25 K	–	15.99
426.08 K	–	17.63
429.93 K	–	20.05
433.16 K	–	22.2
435.59 K	–	24.04
438.37 K	–	26.19
440.66 K	–	28.12
442.49 K	–	29.8
445.02 K	–	32.16

Source: the NIST ThermoML archive (doi:10.1016/j.fluid.2016.10.026)
